# Entries after “also recorded” stand apart in the source; their conditions may differ.
# Legend:
# B16F10 cells [1] = assay: Spheroid formation assay (Test Example 4); assay type: cell-based, mouse; settings: 0.3 µM or 3 µM; 24, 48 and 72 hours
# Procedure: Specifically, B16F10 cells were seeded in an amount of 0.3×10^5 cells/mL in a 96-well plate for spheroid formation in an amount of 100 µL each. Thereupon, neopetasin at a concentration of 0.3 µM or 3 µM was added to the medium. Cells were photographed using a phase-contrast microscope after 24 hours, 48 hours and 72 hours of adding neopetasin. Moreover, as a negative control section, DMSO was administered to perform the same experiment.
# [2] = Cell proliferation inhibition assay (Test Example 14); assay type: cell-based; settings: compared with petasin, S-petasin and S-neopetasin
# Procedure: In this test example, IC50 values in the cell proliferation inhibition assay for petasin, neopetasin, S-petasin and S-neopetasin were measured in addition to the Petasites japonicus extract (whole extract).
# [3] = tested on: ASF4-1 cells (normal human skin-derived fibroblasts); assay: Proliferation inhibition, normal fibroblasts compared with tumor cells (Test Example 1); assay type: cell-based
# Procedure: First, CMeCl cells (canine malignant melanoma cells) were seeded in a six-well plate so as to be 0.5×10^5 cells/mL, and after 24 hours therefrom, each of the above four kinds of compounds (final concentration: 0.01 to 100 µg/mL) was suspended in the medium at a ratio of 0.1% and incubated for 72 hours. 72 hours after the start of culture, the number of viable cells was measured by trypan blue staining. At this time, viable cells (cell viability%) were calculated as the relative number of cells when the number of viable cells in a negative control section (DMSO treatment) was taken as 100%. Then, IC50 was calculated using a GraphPad Prism software system (GraphPad Software Inc.).
# Furthermore, the results of the same test as described above using ASF4-1 cells, which are normal human skin-derived fibroblasts, and A2058 cells, which are human malignant melanoma cells, are shown in FIG. 1C in comparison with the case of using B16F10 cells.
# [4] = tested on: mitochondria in B16F10 cells; assay: Electron microscope observation of treated cells (Test Example 8); assay type: cell-based, mouse; settings: neopetasin 3 µM, metformin 5000 µM
# Procedure: Following the above results, the cells respectively treated with neopetasin (3 µM) and metformin (5000 µM) in the above were observed using an electron microscope. Furthermore, DMSO was administered to the negative control section, and the same experiment was performed.
# B16F10 cells [5] = assay: Lung metastasis of cells pre-treated in vitro, tail vein injection (Test Example 13); assay type: in vivo, mouse; settings: cells reacted with 3 µM in vitro; two-week non-treatment period
# Procedure: In this test example, neopetasin (NP) was previously reacted with B16F10 cells that are derived from the mouse melanoma at a concentration of 3 µM in vitro. Thereafter, the uniform numbers of living cells were injected into the tail vein of the mice, and thereafter, no treatment was performed, and the number of metastasis lesions formed in the lung after a two-week non-treatment period was counted. The protocol of the present test example is shown in FIG. 19, and the graph showing the results of the present test example and the observation photograph of the extracted lung are shown in FIG. 20. […] Here, if neopetasin (NP) were reducing the number of lung metastasis lesions as part of the proliferation inhibitory effect on tumor cells (in other words, lung metastasis is suppressed as part of the proliferation inhibitory effect), equivalent formation of metastasis lesions should be observed in both neopetasin (NP)-administered group and the control (DMSO-administered group) during the non-treatment period in which the proliferation inhibitory effect is not exerted. However, in reality, as described above, formation of a new metastatic lesion has not been confirmed even after the non-treatment period in neopetasin (NP)-administered group.
# B16F10 cells [6] = assay: Metabolomic analysis (amino acids) by CE-TOFMS (Test Example 7); assay type: cell-based, mouse
# Procedure: The metabolomic analysis (amino acids) of neopetasin-treated B16F10 cells was performed. Specifically, for B16F10 cells treated with neopetasin (3 µM) through the same method as in Test Example 1, the cells were recovered at each time point of 9 hours and 48 hours after the treatment, and amino acid concentration was measured using a capillary electrophoresis-time of flight mass spectrometer (CE-TOFMS). Furthermore, the amino acid concentration in the sample was measured according to an internal standard calibration method, and the internal standard concentration in the sample was calculated as 25 µM. Moreover, for the analysis, Master Hands ver. 2.17.3.18 (Institute for Advanced Biosciences, Keio University) was used.
# A2058 cells [7] = assay: Western blotting of cancer-related proteins, A2058 cells (Test Example 10); assay type: cell-based, human; settings: 3 µM, 56 hours
# A2058 cells [8] = assay: KEGG Pathway analysis using microarray (Test Example 6); assay type: cell-based, human; settings: 3 µM, 8 hours
# Procedure: The signaling pathways affected by neopetasin treatment were examined by KEGG Pathway analysis using the microarray. Specifically, A2058 cells were seeded at 0.5×10^5 cells/mL in a six-well plate, and after 24 hours of seeding, neopetasin (final concentration: 3 µM) was suspended in a medium and incubated for 8 hours. A2058 cells thus treated with neopetasin (3 µM) for 8 hours were recovered with a cell scraper. Furthermore, DMSO was administered to the negative control section, and the same experiment was performed. Next, data was collected using SurePrint G3 Human CGH microarray 8x60K (Agilent, CA, USA) and the raw data obtained for each sample was normalized with 75 percentile values (global normalization). Then, using Gene Set Enrichment Analysis (GSEA, Broad Laboratory, Massachusetts Institute of Technology, MA, USA), pathways registered in KEGG, Reactome, and GO were searched.
# In FIG. 7, the genes with increased expression are shown in red, the gene groups with decreased expression are shown in blue, and the gene groups with changes therebetween are shown in white. […] In addition, when the heat map was drawn, gene groups included in the variable pathways were extracted, and the log-transformed signal data was subjected to cluster analysis by Ward’s method using JMP version 12.2.0 (SAS Institute Inc.).
# B16F10 cells [9] = assay: Mouse malignant melanoma lung metastasis model (Test Example 2); assay type: in vivo; settings: 50 mg/kg intraperitoneally once every two days, 5 times; after 10 days
# Procedure: Using the mouse malignant melanoma lung metastasis model, the metastasis inhibitory effect of neopetasin on tumor cells was examined. Specifically, C57BL/6 mice (6 weeks old, female) were purchased from Japan SLC (Hamamatsu). Then, the B16F10 cells were intravenously administered from tail vein in an amount of 0.25×10^6 cells/100 µL PBS. Then, from the day when the cells were seeded, neopetasin (50 mg/kg) was intraperitoneally administered once every two days (5 times in total). After 10 days from the start of administration, the lungs were dissected and extracted, and the number of metastasis lesions observed on the lung surface was counted. In addition, the P value was calculated using Student’s T-test using the GraphPad Prism software system (GraphPad software Inc) .
structure (smiles),measurement,setting,value
"C=C(C)[C@H]1C[C@@]2(C)C(=CC1=O)CC[C@@H](OC(=O)/C(C)=C\C)[C@@H]2C [Neopetasin, neopetasin]",spheroid formation,B16F10 cells [1],could not form spheroids
same,cell proliferation inhibition activity (IC50 comparison),[2],superior cell proliferation inhibition activity to the other three compounds
same,inhibitory effect on proliferation of / cytotoxicity to normal cells,[3]; ASF4-1 cells,hardly exhibits the inhibitory effect on proliferation of normal cells; also recorded: shows no cytotoxicity
same,IC50 for ASF4-1 cells (normal cells) relative to IC50 for tumor cells,[3]; versus A2058 cells and B16F10 cells,≥ 1000 fold
same,influence on mitochondria (electron microscope),[4],most mitochondria were vacuolated
same,formation of metastasis lesions in lung,B16F10 cells [5],formation of metastasis lesions was not observed
same,concentration of aspartic acid (Asp) in the sample,"B16F10 cells [6]; 3 µM, after 9 hours",strongly reduced
same,"aspartic acid synthesis, remaining fraction",B16F10 cells [6]; summary statement,⅒
same,expression of cancer-related molecules,A2058 cells [7],inhibit a wide range of cancer-related molecules
same,changes in asparagine synthetase (ASNS) and cystathionine gamma-lyase (CTH),A2058 cells [8],particularly significant changes
same,expression of molecules involved in amino acid metabolism,A2058 cells [8],greatly varies
same,lung metastasis (number of metastasis lesions on the lung surface),B16F10 cells [9],extremely potently suppressed lung metastasis; also recorded: inhibited lung metastasis
